The assay concerns the target T1, human IGF-IR (Homo sapiens, UniProt P08069).
T1 construct: complete human IGF-IR cDNA: GenBank Acc; No. NM_000875; expressed in transfected cells; host or cells: NIH-3T3 mouse fibroblasts (NWT-21 cell line), prepared as in Kato et al., J. Biol. Chem. 268, 2655-61, 1993
The assay can be described thus: cellular "Capture ELISA" test for activity against IGF-I induced IGF-IR autophosphorylation. It is filed as cell-based. The note with it: IGF-I (10 ng/ml) induced IGF-IR autophosphorylation in NIH-3T3 mouse fibroblasts transfected with human IGF-IR (NWT-21 cell line); 90 min compound incubation. How it is done: In this assay the activity of the compounds of the invention against Insulin-like growth factor I (IGF-I) induced autophosphorylation of the IGF-IR is determined. The assay is conducted as follows:
The cells which overexpress human IGF-IR are cultured in Dulbecco's minimal essential (DMEM) medium, containing 10% Fetal Calf Serum (FCS). […] On day 3 the medium is discarded and the cells are incubated for 24 h in minimal medium (DMEM, containing 0.5% FCS).
The plates are washed twice with 0.05% (v/v) Tween-20 in Phosphate-Buffered Saline (PBS) and once with nanopure H2O. […] After blocking, the plates are washed once with nanopure H2O.
After incubating the extracts and the secondary antibody for 2 h at 4° C., the extracts are discarded, the plates are washed twice with 0.05% (v/v) Tween-20 in PBS and once with nanopure water.
90 μl/well AP substrate (CDP-Star; obtained from Tropix; Cat. No.: MS100RY) are then added and the plates are incubated for 45 min at RT in the dark, followed by measuring AP activity in a Packard Top Count Microplate Scintillation Counter. The IC50 values for the compounds of formula I are calculated via linear regression analysis using the GraphPad In-stat program (GraphPad Software, USA).
Test for activity against IGF-I induced IGF-IR autophosphorylation using the cellular “Capture ELISA” test
The cellular “Capture ELISA” test is carried out as described above.
T1 sequence (P08069 31-1367): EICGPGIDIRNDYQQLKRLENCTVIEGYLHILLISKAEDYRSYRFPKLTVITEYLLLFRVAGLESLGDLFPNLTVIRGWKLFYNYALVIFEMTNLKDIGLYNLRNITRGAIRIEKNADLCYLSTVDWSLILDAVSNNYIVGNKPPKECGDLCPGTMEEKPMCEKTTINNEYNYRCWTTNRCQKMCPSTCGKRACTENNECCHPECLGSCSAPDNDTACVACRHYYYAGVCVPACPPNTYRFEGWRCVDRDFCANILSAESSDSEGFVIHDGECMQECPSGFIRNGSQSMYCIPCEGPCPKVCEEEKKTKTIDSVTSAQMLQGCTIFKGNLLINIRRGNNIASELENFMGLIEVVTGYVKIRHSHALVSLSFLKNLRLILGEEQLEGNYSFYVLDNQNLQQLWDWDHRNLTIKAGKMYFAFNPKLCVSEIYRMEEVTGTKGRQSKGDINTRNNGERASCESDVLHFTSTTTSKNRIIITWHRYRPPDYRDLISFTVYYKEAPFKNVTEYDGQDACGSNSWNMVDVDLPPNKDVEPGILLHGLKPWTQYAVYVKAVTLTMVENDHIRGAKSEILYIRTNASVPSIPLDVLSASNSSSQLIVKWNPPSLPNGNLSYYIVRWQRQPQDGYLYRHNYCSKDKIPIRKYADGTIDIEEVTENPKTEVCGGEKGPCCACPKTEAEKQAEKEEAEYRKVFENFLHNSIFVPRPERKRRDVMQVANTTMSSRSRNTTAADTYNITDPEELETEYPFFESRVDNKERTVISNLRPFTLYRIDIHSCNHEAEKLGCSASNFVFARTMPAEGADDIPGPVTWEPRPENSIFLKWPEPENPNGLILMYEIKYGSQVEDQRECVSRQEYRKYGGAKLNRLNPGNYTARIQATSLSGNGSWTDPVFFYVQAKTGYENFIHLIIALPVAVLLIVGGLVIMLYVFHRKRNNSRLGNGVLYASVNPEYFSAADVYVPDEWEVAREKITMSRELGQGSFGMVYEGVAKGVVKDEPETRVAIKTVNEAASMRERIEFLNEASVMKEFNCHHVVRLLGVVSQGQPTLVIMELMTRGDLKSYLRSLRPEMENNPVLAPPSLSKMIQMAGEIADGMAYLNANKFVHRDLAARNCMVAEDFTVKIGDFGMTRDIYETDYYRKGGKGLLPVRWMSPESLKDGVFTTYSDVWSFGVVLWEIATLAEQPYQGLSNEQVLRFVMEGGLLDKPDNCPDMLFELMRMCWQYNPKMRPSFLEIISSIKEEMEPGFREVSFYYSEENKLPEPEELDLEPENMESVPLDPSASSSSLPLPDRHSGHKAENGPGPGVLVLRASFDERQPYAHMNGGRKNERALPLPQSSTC
`Nc1ncnc2c1c(-c1cccc(OCc3ccccc3)c1)cn2[C@H]1CC[C@@H](N2CCC2)CC1` [Example 10, cis-7-(4-Azetidin-1-yl-cyclohexyl)-5-(3-benzyloxy-phenyl)-7H-pyrrolo[2,3-d]pyrimidin-4-ylamine] came in with an IC50 of 120 nM. For `Nc1ncnc2c1c(-c1cccc(OCc3ccccc3)c1)cn2[C@H]1CC[C@H](N2CCC2)CC1` [Example 11, trans-7-(4-Azetidin-1-yl-cyclohexyl)-5-(3-benzyloxy-phenyl)-7H-pyrrolo[2,3-d]pyrimidin-4-ylamine] the value was 350 nM. For `CCN(CC)[C@H]1CC[C@H](n2c(C)c(-c3cccc(OCc4ccccc4)c3)c3c(N)ncnc32)CC1` [Example 47, trans-5-(3-Benzyloxy-phenyl)-7-(4-diethylamino-cyclohexyl)-6-methyl-7H-Pyrrolo[2,3-d]pyrimidin-4-ylamine] the value was 400 nM.

These data come from patent US20060058324A1, “4-Amino-5-phenyl-7-cyclohexyl-pyrrolo 2,3-d pyrimidine derivatives” (priority 2002, published 2006).
